From ChEMBL document CHEMBL1201862, “PubChem BioAssay data set” (2004)
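Cultured in 96-well plates, cells were exposed to test compound for 48 hours across five concentrations. GI50 marks 50% less growth.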 Calls of active or inactive are those of the source. No stated cut-off is given here; in the data, active = GI50 up to about 1.1 µM and inactive = higher.

Assays:
Test in all cases: DTP human tumour cell line panel, 48 h
[1] = system: Hs-578T
[2] = system: OVCAR-3
[3] = system: K562
[4] = system: MOLT-4
[5] = system: HOP-62
[6] = system: DU-145
[7] = system: MDA-MB-435
[8] = system: SF-539
[9] = system: OVCAR-5
[10] = system: UACC-257
[11] = system: SW-620
[12] = system: RPMI-8226
[13] = system: SNB-19
[14] = system: NCI-H226
[15] = system: U-251
[16] = system: EKVX
[17] = system: SNB-75
[18] = system: PC-3
[19] = system: SK-MEL-2

Measured: GI50

O=C1C2=Cc3ccccc3CCN2c2ccc([N+](=O)[O-])cc21
inactive: [1] 64.6 µM | [2] 44.2 µM | [3] > 100 µM | [4] 45.7 µM | [5] > 100 µM | [6] 96.2 µM | [7] > 100 µM | [8] 82.6 µM | [9] > 100 µM | [10] 36.4 µM | [11] > 100 µM | [12] > 100 µM | [13] > 100 µM | [14] 64 µM | [15] > 100 µM | [16] 21.4 µM | [17] > 100 µM | [18] > 100 µM

CCSCCCCC(c1ccc(O)cc1)C(C)(CC)c1ccc(O)cc1 (configuration not stated)
inactive: [1] 23.6 µM | [2] 18.2 µM | [3] 42.1 µM | [4] 32.1 µM | [5] 53.7 µM | [6] > 100 µM | [7] 18.2 µM | [8] 20 µM | [9] 24.4 µM | [10] 22.2 µM | [11] 21.4 µM | [12] 19.5 µM | [13] 24.5 µM | [14] 17.9 µM | [15] 16.4 µM | [19] 16 µM | [16] 29.6 µM | [17] > 100 µM | [18] 20.3 µM

C[C@@H]([C@H]1CC[C@@]2(C)[C@@H]3CC[C@@H]4C(=CC3=CC[C@]12C)CC[C@H](N(C)C)C4(C)C)N(C)C [BUXAMINE A]
inactive: [1] > 100 µM | [2] > 100 µM | [3] > 100 µM | [4] > 100 µM | [5] > 100 µM | [6] > 100 µM | [7] > 100 µM | [8] > 100 µM | [9] > 100 µM | [10] > 100 µM | [11] > 100 µM | [12] > 100 µM | [13] > 100 µM | [14] > 100 µM | [15] > 100 µM | [16] > 100 µM | [18] > 100 µM

Oc1cnc2c(O)cccc2c1 [JINEOL]
inactive: [1] > 100 µM | [2] 20.6 µM | [3] 51.3 µM | [4] 41.7 µM | [5] 26.7 µM | [6] 57.3 µM | [7] 80.2 µM | [8] 30.3 µM | [9] 24.9 µM | [10] 56.6 µM | [11] 45.5 µM | [12] 38.1 µM | [13] 58.9 µM | [14] 24.2 µM | [15] 48.9 µM | [19] 64.4 µM | [16] 15.9 µM | [17] 20.7 µM | [18] 36.8 µM

CCOP(=O)(OCC)/C(C#N)=C\c1ccc(OC(C)=O)cc1
inactive: [2] > 100 µM | [3] > 100 µM | [4] > 100 µM | [5] > 100 µM | [6] > 100 µM | [8] > 100 µM | [9] > 100 µM | [10] > 100 µM | [11] > 100 µM | [12] > 100 µM | [13] > 100 µM | [14] > 100 µM | [15] > 100 µM | [19] > 100 µM | [16] > 100 µM | [17] > 78.5 µM

CC1CN=C(N(C)C(=O)Nc2ccc(Cl)c(Cl)c2)S1 (configuration not stated)
inactive: [1] 22.8 µM | [2] 20.5 µM | [3] 23.4 µM | [4] 27.9 µM | [5] 21.8 µM | [6] 44.8 µM | [8] 17.7 µM | [9] 15.2 µM | [10] 26.9 µM | [11] 29.5 µM | [12] 31.7 µM | [13] 80 µM | [15] 31.6 µM | [19] 17.4 µM | [16] 32.4 µM | [17] 19.1 µM | [18] 27.4 µM

Cc1c(/C=N/NC(=O)c2cc(Br)cc(Br)c2O)c(=O)n(-c2ccccc2)n1C
inactive: [2] 29.9 µM | [3] 51.4 µM | [4] 56.1 µM | [5] 52.7 µM | [8] 47 µM | [9] > 100 µM | [10] 35.3 µM | [11] 53.7 µM | [12] 85.7 µM | [13] > 100 µM | [14] 90.6 µM | [15] 69 µM | [19] > 100 µM | [16] > 100 µM | [17] > 100 µM

CCOC(=O)C(=O)/C(=C/NC(=S)Nc1ccc(Cl)c(Cl)c1)C(=O)OCC
inactive: [1] 44.5 µM | [2] 72.9 µM | [4] 29.4 µM | [5] > 100 µM | [6] > 100 µM | [7] 72.1 µM | [8] 25.6 µM | [9] > 100 µM | [10] 60.3 µM | [11] 87.9 µM | [12] 17.9 µM | [13] > 100 µM | [14] 56 µM | [15] > 100 µM | [19] 69.2 µM | [16] 25.6 µM | [17] 31.2 µM | [18] 47 µM

CCOC(=O)C1=C(O)C(=O)c2cc(C)ccc2C1=O
inactive: [2] 93.3 µM | [3] > 100 µM | [4] > 100 µM | [5] 63.4 µM | [8] > 100 µM | [9] > 100 µM | [10] 48 µM | [11] > 100 µM | [12] > 100 µM | [13] 31.6 µM | [14] 22.2 µM | [15] > 100 µM | [19] > 100 µM | [16] > 100 µM | [17] 43.5 µM

CC(C)CC1[C@@H](OCc2ccccc2)COS(=O)N1Cc1ccccc1 (some centres not stated)
inactive: [1] 23.9 µM | [2] 54.2 µM | [3] 39.4 µM | [4] 37 µM | [5] 56.6 µM | [6] 35.6 µM | [7] 31.5 µM | [9] > 100 µM | [10] 30.7 µM | [11] 39.8 µM | [12] 20.8 µM | [13] 41.7 µM | [14] 47.1 µM | [15] 29.9 µM | [19] 31 µM | [16] 38.8 µM | [17] 21.5 µM | [18] 30.1 µM

N=c1oc2c(O)c(O)ccc2cc1C(N)=O
inactive: [2] 46.8 µM | [3] 17.7 µM | [4] 34 µM | [5] > 100 µM | [8] > 100 µM | [9] > 100 µM | [10] 32.1 µM | [11] 32.1 µM | [12] 32.1 µM | [13] > 100 µM | [14] > 100 µM | [15] 90.6 µM | [19] 48.2 µM | [16] 47.2 µM | [17] 30.2 µM
